According to US20250270172A1, “Pyrimidine Derivatives As Modulators of the 5-HT2A Serotonin Receptor Useful For The Treatment of Disorders Related Thereto” (Arena Pharmaceuticals, Inc., priority 2020, published 2025):

What follows are compounds tested against 5-HT2A (Homo sapiens (Human), UniProt P28223) (assay: Radioligand binding assay, [^3H]5-HT competition, 5-HT2A). Details: [^3H]5-HT radioligand, membranes of HEK293 cells expressing recombinant 5-HT2A; Ki from IC50 by Cheng-Prusoff; read-out: 5-HT2A serotonin binding Ki value.
Chain of 5-HT2A (P28223 whole entry): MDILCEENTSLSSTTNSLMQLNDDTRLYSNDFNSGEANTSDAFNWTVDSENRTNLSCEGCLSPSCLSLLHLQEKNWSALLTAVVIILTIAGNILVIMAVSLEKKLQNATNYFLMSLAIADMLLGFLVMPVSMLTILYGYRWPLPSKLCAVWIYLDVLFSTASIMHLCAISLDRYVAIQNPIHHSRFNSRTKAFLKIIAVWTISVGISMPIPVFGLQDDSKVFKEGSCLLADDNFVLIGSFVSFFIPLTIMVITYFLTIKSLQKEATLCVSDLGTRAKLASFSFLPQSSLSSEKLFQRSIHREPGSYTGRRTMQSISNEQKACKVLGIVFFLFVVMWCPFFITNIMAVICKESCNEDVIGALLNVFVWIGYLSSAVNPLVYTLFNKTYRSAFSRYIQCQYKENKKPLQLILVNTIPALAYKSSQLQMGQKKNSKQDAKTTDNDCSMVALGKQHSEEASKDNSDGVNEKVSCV
In the case of `CCOC1CC1C(=O)Nc1ccc(OCCN2CCC2)c(-c2c(C)ncnc2C)c1` (stereo not drawn) [Compound 317, N-(4-(2-(azetidin-1-yl)ethoxy)-3-(4,6-dimethylpyrimidin-5-yl)phenyl)-2-ethoxycyclopropane-1-carboxamide], the Ki is reported as 96.3 nM. `COCCN(C)CCOc1ccc(NC(=O)c2c(F)cnn2C)cc1-c1c(C)ncnc1C` [Compound 380, N-(3-(4,6-dimethylpyrimidin-5-yl)-4-(2-((2-methoxyethyl)(methyl)amino)ethoxy)phenyl)-4-fluoro-1-methyl-1H-pyrazole-5-carboxamide] showed a Ki of 9.47 nM. Work on `Cc1ncnc(C)c1-c1cc(NC(=O)C(C)c2ccccc2)ccc1OCCN1CCCC1` (stereo not drawn) [Compound 252, N-(3-(4,6-dimethylpyrimidin-5-yl)-4-(2-(pyrrolidin-1-yl)ethoxy)phenyl)-2-phenylpropanamide] yielded a Ki of 9.53 nM. With `Cc1ncnc(C)c1-c1cc(NC(=O)COC2CCC2)ccc1OCCN1CCCC1` [Compound 242, 2-cyclobutoxy-N-(3-(4,6-dimethylpyrimidin-5-yl)-4-(2-(pyrrolidin-1-yl)ethoxy)phenyl)acetamide] the Ki was 37.6 nM. `Cc1ncnc(C)c1-c1cc(NC(=O)c2ccnn2C)ccc1OCCN1C[C@@H]2C[C@H]1CO2` [Compound 383, N-(4-(2-((1S,4S)-2-oxa-5-azabicyclo[2.2.1]heptan-5-yl)ethoxy)-3-(4,6-dimethylpyrimidin-5-yl)phenyl)-1-methyl-1H-pyrazole-5-carboxamide] gave a Ki of 8.89 nM. `CCCN(CCF)CCOc1ccc(NC(=O)C2CC2)cc1-c1c(C)ncnc1C` [Compound 363, N-[3-(4,6-dimethylpyrimidin-5-yl)-4-[2-[2-fluoroethyl(propyl)amino]ethoxy]phenyl]cyclopropanecarboxamide] showed a Ki of 107 nM. In the case of `Cc1nc(C)c(C(=O)Nc2ccc(OC[C@H]3CCCCN3)c(-c3c(C)ncnc3C)c2)s1` [Compound 426, (R)—N-(3-(4,6-dimethylpyrimidin-5-yl)-4-(piperidin-2-ylmethoxy)phenyl)-2,4-dimethylthiazole-5-carboxamide], the Ki is reported as 87.2 nM. `Cc1ncnc(C)c1-c1cc(NC(=O)c2ccncc2F)ccc1OCCN1CCC1` [Compound 332, N-(4-(2-(azetidin-1-yl)ethoxy)-3-(4,6-dimethylpyrimidin-5-yl)phenyl)-3-fluoroisonicotinamide] showed a Ki of 18.6 nM. In the case of `CCOC1CC1C(=O)Nc1ccc(OCCN2CCOCC2)c(-c2c(C)ncnc2C)c1` (stereo not drawn) [Compound 401, N-(3-(4,6-dimethylpyrimidin-5-yl)-4-(2-morpholinoethoxy)phenyl)-2-ethoxycyclopropane-1-carboxamide], the Ki is reported as 30.9 nM. `COC(C)(C)C(=O)Nc1ccc(OCCN2CCCC2)c(-c2c(C)ncnc2C)c1` [Compound 284, N-[3-(4,6-dimethylpyrimidin-5-yl)-4-(2-pyrrolidin-1-ylethoxy)phenyl]-2-methoxy-2-methyl-propanamide] showed a Ki of 87.5 nM. With `Cc1ncnc(C)c1-c1cc(NC(=O)[C@@H](F)C(C)C)ccc1OC[C@H]1CCCCN1` [Compound 443, (S)—N-(3-(4,6-dimethylpyrimidin-5-yl)-4-(((R)-piperidin-2-yl)methoxy)phenyl)-2-fluoro-3-methylbutanamide] the Ki was 18.8 nM. `Cc1nc(CC(=O)Nc2ccc(OCCN3CCCC3)c(-c3c(C)ncnc3C)c2)no1` [Compound 261, N-(3-(4,6-dimethylpyrimidin-5-yl)-4-(2-(pyrrolidin-1-yl)ethoxy)phenyl)-2-(5-methyl-1,2,4-oxadiazol-3-yl)acetamide] showed a Ki of 91.7 nM. `COCCN(C)CCOc1ccc(NC(=O)c2ccc(F)cc2)cc1-c1c(C)ncnc1C` [Compound 379, N-(3-(4,6-dimethylpyrimidin-5-yl)-4-(2-((2-methoxyethyl)(methyl)amino)ethoxy)phenyl)-4-fluorobenzamide] gave a Ki of 8.38 nM. For `Cc1ncnc(C)c1-c1cc(NC(=O)c2ccccc2)ccc1OCCN1CC(F)C1` [Compound 387, N-[3-(4,6-dimethylpyrimidin-5-yl)-4-[2-(3-fluoroazetidin-1-yl)ethoxy]phenyl]benzamide], the Ki was 13.3 nM. With `Cc1nocc1C(=O)Nc1ccc(OC[C@H]2CCCCN2)c(-c2c(C)ncnc2C)c1` [Compound 430, (R)—N-(3-(4,6-dimethylpyrimidin-5-yl)-4-(piperidin-2-ylmethoxy)phenyl)-3-methylisoxazole-4-carboxamide] the Ki was 21.6 nM. Work on `Cc1ncnc(C)c1-c1cc(NC(=O)C2CC2)ccc1OCCN1CCN(S(C)(=O)=O)CC1` [Compound 342, N-[3-(4,6-dimethylpyrimidin-5-yl)-4-[2-(4-methylsulfonylpiperazin-1yl)ethoxy]phenyl]cyclopropanecarboxamide] yielded a Ki of 6.95 nM. Work on `Cc1ncnc(C)c1-c1cc(NC(=O)C2CC2)ccc1OC[C@H]1CCCN1` [Compound 408, (R)—N-(3-(4,6-dimethylpyrimidin-5-yl)-4-(pyrrolidin-2-ylmethoxy)phenyl)cyclopropanecarboxamide] yielded a Ki of 29.9 nM. `COCCN(C)CCOc1ccc(NC(=O)c2cccc(OC)c2)cc1-c1c(C)ncnc1C` [Compound 377, N-(3-(4,6-dimethylpyrimidin-5-yl)-4-(2-((2-methoxyethyl)(methyl)amino)ethoxy)phenyl)-3-methoxybenzamide] showed a Ki of 2.64 nM. `Cc1ncnc(C)c1-c1cc(NC(=O)c2ncoc2C)ccc1OC[C@H]1CCCCN1` [Compound 432, (R)—N-(3-(4,6-dimethylpyrimidin-5-yl)-4-(piperidin-2-ylmethoxy)phenyl)-5-methyloxazole-4-carboxamide] was tested, and the Ki was 19.1 nM. Compound `Cc1ncnc(C)c1-c1cc(NC(=O)[C@H]2C[C@H](F)C2)ccc1OCCN1CCCC1` [Compound 303, (1r,3r)-N-(3-(4,6-dimethylpyrimidin-5-yl)-4-(2-(pyrrolidin-1-yl)ethoxy)phenyl)-3-fluorocyclobutane-1-carboxamide] has a Ki of 9.36 nM. `Cc1ncnc(C)c1-c1cc(NC(=O)c2ccccc2C#N)ccc1OCCN1CCC1` [Compound 324, N-(4-(2-(azetidin-1-yl)ethoxy)-3-(4,6-dimethylpyrimidin-5-yl)phenyl)-2-cyanobenzamide] was tested, and the Ki was 59700 nM. Compound `Cc1ncnc(C)c1-c1cc(NC(=O)c2ccn(C)c2)ccc1OCCN1CCCC1` [Compound 201, N-(3-(4,6-dimethylpyrimidin-5-yl)-4-(2-(pyrrolidin-1-yl)ethoxy)phenyl)-1-methyl-1H-pyrrole-3-carboxamide] has a Ki of 33.4 nM. In the case of `CCCN(C)CCOc1ccc(NC(=O)C2CC2)cc1-c1c(C)ncnc1C` [Compound 367, N-(3-(4,6-dimethylpyrimidin-5-yl)-4-(2-(methyl(propyl)amino)ethoxy)phenyl)cyclopropanecarboxamide], the Ki is reported as 37.6 nM. `Cc1ncnc(C)c1-c1cc(NC(=O)c2cccc(F)c2)ccc1OCCN1CCC1` [Compound 320, N-(4-(2-(azetidin-1-yl)ethoxy)-3-(4,6-dimethylpyrimidin-5-yl)phenyl)-3-fluorobenzamide] gave a Ki of 1.77 nM. In the case of `Cc1ncnc(C)c1-c1cc(NC(=O)C2CC2)ccc1OCCN(C)CC[S+](C)[O-]` (stereo not drawn) [Compound 365, N-[3-(4,6-dimethylpyrimidin-5-yl)-4-[2-[methyl (2-methylsulfinylethyl)amino]ethoxy]phenyl]cyclopropanecarboxamide], the Ki is reported as 232 nM. Work on `Cc1ncnc(C)c1-c1cc(NC(=O)Cc2cc(C)n(C)n2)ccc1OCCN1CCCC1` [Compound 267, 2-(1,5-dimethyl-1H-pyrazol-3-yl)-N-(3-(4,6-dimethylpyrimidin-5-yl)-4-(2-(pyrrolidin-1-yl)ethoxy)phenyl)acetamide] yielded a Ki of 692 nM. `CCOC1(C(=O)Nc2ccc(OCCN3CCCC3)c(-c3c(C)ncnc3C)c2)CC1` [Compound 285, N-[3-(4,6-dimethylpyrimidin-5-yl)-4-(2-pyrrolidin-1-ylethoxy)phenyl]-1-ethoxy-cyclopropanecarboxamide] gave a Ki of 33.4 nM. With `Cc1ncnc(C)c1-c1cc(N(C)C(=O)c2ccnn2C)ccc1OCCN1CCCC1` [Compound 280, N-[3-(4,6-dimethylpyrimidin-5-yl)-4-(2-pyrrolidin-1-ylethoxy)phenyl]-N,2-dimethyl-pyrazole-3-carboxamide] the Ki was 65800 nM. With `Cc1ncnc(C)c1-c1cc(NC(=O)C2CC2)ccc1O[C@H]1CCCNC1` [Compound 419, (S)—N-(3-(4,6-dimethylpyrimidin-5-yl)-4-(piperidin-3-yloxy)phenyl)cyclopropanecarboxamide] the Ki was 443 nM. Compound `Cc1nc(CCC(=O)Nc2ccc(OCCN3CCCC3)c(-c3c(C)ncnc3C)c2)co1` [Compound 259, N-[3-(4,6-dimethylpyrimidin-5-yl)-4-(2-pyrrolidin-1-ylethoxy)phenyl]-3-(2-methyloxazol-4-yl)propanamide] has a Ki of 19.6 nM. With `Cc1ncnc(C)c1-c1cc(NC(=O)c2ccccc2)ccc1OCCN1C[C@@H]2C[C@H]1CO2` [Compound 381, N-(4-(2-((1S,4S)-2-oxa-5-azabicyclo[2.2.1]heptan-5-yl)ethoxy)-3-(4,6-dimethylpyrimidin-5-yl)phenyl)benzamide] the Ki was 5.54 nM. In the case of `COCCNCCOc1ccc(NC(=O)c2cccc(F)c2)cc1-c1c(C)ncnc1C` [Compound 373, N-(3-(4,6-dimethylpyrimidin-5-yl)-4-(2-((2-methoxyethyl)amino)ethoxy)phenyl)-3-fluorobenzamide], the Ki is reported as 1.73 nM. In the case of `Cc1cccc(C(=O)Nc2ccc(OCCN3CCCC3)c(-c3c(C)ncnc3C)c2)c1` [Compound 300, N-(3-(4,6-dimethylpyrimidin-5-yl)-4-(2-(pyrrolidin-1-yl)ethoxy)phenyl)-3-methylbenzamide], the Ki is reported as 1.48 nM. `Cc1ncnc(C)c1-c1cc(NC(=O)c2cccn2C)ccc1O[C@@H]1CCCNC1` [Compound 416, (R)—N-(3-(4,6-dimethylpyrimidin-5-yl)-4-(piperidin-3-yloxy)phenyl)-1-methyl-1H-pyrrole-2-carboxamide] showed a Ki of 45.3 nM. With `Cc1nscc1C(=O)Nc1ccc(OC[C@H]2CCCCN2)c(-c2c(C)ncnc2C)c1` [Compound 434, (R)—N-(3-(4,6-dimethylpyrimidin-5-yl)-4-(piperidin-2-ylmethoxy)phenyl)-3-methylisothiazole-4-carboxamide] the Ki was 19.3 nM. Compound `COC1(C(=O)Nc2ccc(OC[C@H]3CCCCN3)c(-c3c(C)ncnc3C)c2)CC1` [Compound 439, (R)—N-(3-(4,6-dimethylpyrimidin-5-yl)-4-(piperidin-2-ylmethoxy)phenyl)-1-methoxycyclopropane-1-carboxamide] has a Ki of 14.6 nM.
